Experimental data published in patent publication US10732172B1, “Methods, systems, and compositions for determining blood clot formation, and uses thereof” (President and Fellows of Harvard College, priority 2015, dated 2020).
Entries after “also recorded” stand apart in the source; their conditions may differ.

Assays:
HUVECs and platelets = assay: Platelet adhesion and dynamics on TNF-α stimulated endothelium (living or fixed), whole blood perfusion; type: cell-based, human; conditions: for platelet aggregation pattern / Aggregation Index (AI) / translocation and embolization of thrombi / Embolization Index (EI): HUVEC, TNF-α 0, 5, 100 ng/ml
Protocol: 500 microliters (“μL”) of whole blood are pipetted into a fluid reservoir fitted to one end of a microchannel. Platelets are labeled with human CD41-PE antibody (e.g., 10 μL/mL from Invitrogen) that is directly added to the blood samples and incubated at room temperature for 10 minutes. Fluorescently labeled fibrinogen (e.g., 10 μg/mL from Life Sciences) is added, if required. Blood is pulled through the device (e.g., 30 μL/min) via tubing at an outlet using a syringe pump (e.g., PHD Ultra™ CP, Harvard Apparatus), resulting in an arterial shear rate of 750 s^−1. After two minutes, blood is supplemented with 100 millimolars (“mM”) calcium (“CaCl2”) and 75 mM magnesium (“MgCl2”) to support coagulation-activated blood clotting (e.g., 100 μL/mL).
Platelets are visualized using time-lapse fluorescence imaging (e.g., 20×, NA 0.4). A time series of a 10-frame panorama (e.g., 6 mm long×0.665 mm wide region of a microchannel), at a lapse of every 30 seconds is recorded. The resulting image stack is maximum intensity projected along time, thresholded, segmented, and cropped to a central 200 microns (“μm”) of the channel width for analysis. Finally, platelet coverage is computed from the binary image as the ratio of bright pixels to the total number of pixels in the image.
Multiple endothelial adhesion molecules are involved in the recruitment of blood cells and platelets in thrombosis in vivo. In previous studies, treatment of a living endothelium cultured in microfluidic channels with TNF-α results in an increase in expression of surface adhesion molecules, such as ICAM-1 and VCAM-1 within four hours after addition. To explore whether a fixed endothelium retains expression of these and other surface molecules that could potentially exacerbate thrombosis, the endothelium is first activated in the device by adding increasing doses of TNF-α, e.g., 0, 5, and 100 nanograms/millliter (“ng/ml”), for approximately 18 hours. The endothelium cells are fixed with 4% paraformaldehyde in phosphate-buffered saline (“PBS”) for 15 minutes at room temperature, are rinsed three times with PBS, and, then, stored in PBS at 4° C. in a humid environment.
To explore whether the fixed endothelium in the microfluidic devices retains the ability to promote hemostasis, recalcified citrated whole blood (coagulation activated) is immediately perfused through a microfluidic channel lined by the fixed endothelium and preserved for 24-36 hours. Platelet adhesion is analyzed for 15 minutes of flow.
(§1) Specifically, the analysis includes a method to quantitate platelet function in flow chambers and microfluidic devices that has been primarily limited to analyzing platelet adhesion on bare collagen surfaces. To analyze platelet-endothelial dynamics that will act as a robust readout of physiologically-relevant clotting, an automated imaging program creates an image time-series, K(x, y, t), containing a 10-frame panorama in space. Images are acquired at a frame rate of 2 panoramic images per minute, for a total time of 15 minutes. A non-dimensional stochastic index is derived to quantitate platelet endothelial dynamics (“P-E”), which is the interpercentile range of a coefficient of variance of the image time-series: P-E=range(CV(K(x,y,t) (1) A feature of this analytical readout is that instead of an “ensemble averaging,” the method incorporates the cell-surface interactions at the pixel level and quantitates statistical “dispersion” of interactions.
When the device is perfused with whole blood, thrombi that are rich in platelets and fibrin form on the surface (FIG. 65C). The spatiotemporal dynamics of fluorescent platelet activity during formation of these thrombi on the endothelial surface was analyzed by time-lapse imaging. As flow was stable for at least 15 min, all experiments were carried out within the first 15 minutes. In some embodiments, blood might begin to clot in the tubing connected to the chip at later times (leading to decreased perfusion rates). […]

[1] = tested on: primary alveolar epithelial cells (AE) and endothelial cells with whole blood; assay: Lung-on-a-chip stimulated with TNF-α or LPS: vascular ICAM-1, P-E, clots, gap junctions; type: cell-based, human
Source text: as §1
After plasma treatment of the microfluidic devices, the two chambers are pre-treated with 10% (3-aminopropyl)-trimethoxysilane (APTMES, e.g., from Sigma) in 100% anhydrous alcohol (e.g., from Sigma) for 10-20 minutes. The chambers are flushed sequentially with 70% ethanol in water and 100% ethanol, and then dried at 60-80° C. for two hours. Then, a mixture of rat tail collagen I (100 μg ml^−1 in PBS, from BD Biosciences) and fibronectin (e.g., 30 μg/ml in PBSm, from BD Biosciences) is introduced in both chambers of the microfluidic device. The microfluidic device is incubated at 37° C. for at least 2 hours before flushing with PBS or EGM-2 cell culture media.
Some of the microfluidic devices are used with collagen coating alone (without cells). In other devices, HUVECs (e.g. from Lonza) are cultured in Endothelial Growth Medium-2 (EGM-2, from Lonza) and used between certain passages. The cells (5-10×10^6 cells/ml) are introduced into the collagen-coated channels and incubated for 20 minutes at 37° C. to promote cell attachment before a second similar HUVEC suspension is, then, introduced. The microfluidic devices are incubated upside down for an additional 20 minutes to seed the cells on the ceiling and walls of the lower chamber.
The lower chamber is then flushed with EGM-2 and, then, a suspension of primary alveolar epithelial cells (e.g., from ScienCell Research Labs, Carlsbad, Calif.; 5-6×10^6 cells ml^−1) is introduced into the top chamber of the device. After a few hours, the top and bottom chambers are flushed with their respective media, and the microfluidic devices are incubated at 37° C. under 5% CO2 for 3 days (with media being replaced each day once). On day 4, the bottom vascular chamber is set on perfusion of EGM-2 media (e.g., 30 μL hr^−1; 0.5% fetal bovine serum) to provide shear to the HUVEC vessel chamber and a continuous supply of fresh media.
On day 6, the epithelial cell media in the top chamber is aspirated to create the air-liquid interface of the alveoli. Hereon, the cell culture continues for another 6-8 days, after which, in some cases, the top chamber is supplemented with 0, 5, or 100 ng ml^−1 TNF-α in PBS (e.g., from Sigma) overnight or LPS (e.g., 100 ng ml^−1 of E. Coli, from Sigma,) for 2 hours to cause cell activation. The LPS is sonicated in ultrasonic bath for about 20-30 minutes before introducing into the microfluidic device. After stimulation, the top chamber is clamped, the bottom chamber is rinsed with culture media, a reservoir cut from a 3 ml slip-tip syringe (e.g., from BD) is inserted on one end of the lower chamber, and a 1/16-inch male luer connector (e.g., from Qosina Corp) is inserted on the other end of the lower chamber.
When analyzing the formation of fibrin, blood samples re added with 15 μg ml^−1 of fluorescently labeled fibrinogen (e.g., Alexa 488 from Invitrogen). […]

Substance: tumor necrosis factor-α [TNF-α]
- platelet aggregation pattern / Aggregation Index (AI) (HUVECs and platelets): heterogeneous and fluctuated in a dose-dependent manner; also recorded: varied depending on the dose of TNF-α
- translocation and embolization of thrombi / Embolization Index (EI) (HUVECs and platelets): great variation in the fluorescent signal over time and space; also recorded: increased with increasing doses
- platelet aggregation pattern / Aggregation Index (AI) (HUVECs and platelets; listed as TNFα): rise of AI with increasing TNFα dose
- translocation and embolization of thrombi / Embolization Index (EI) (HUVECs and platelets; listed as TNFα): increased in a TNFα dose-dependent manner
- area-averaged platelet adhesion rate on living HUVECs (HUVECs and platelets; TNF-α stimulated HUVECs (TNF+; TNF++) versus unstimulated): increase in platelet adhesion
- platelet dynamics (TPD, SPD) on fixed HUVECs (HUVECs and platelets; TNF-α treated and fixed, versus fixed collagen or untreated fixed endothelium): elevated
- platelet coverage on fixed endothelium (HUVECs and platelets; endothelium treated with increasing doses of TNF-α prior to fixation): increases in a TNF-α dose-dependent manner; also recorded: dose-dependent increase in platelet surface adhesion; also recorded: dose-dependent increase in surface coverage of platelet-rich thrombi
- platelet-endothelial dynamics (P-E; spatial and temporal dispersion) (HUVECs and platelets; living endothelium stimulated with TNF-α): increase in a TNF-α dose dependent manner; also recorded: significant fluctuations; also recorded: TNF-α dose-dependent increase in both the spatial and temporal dispersion
- platelet coverage / adhesion on living endothelium (HUVECs and platelets; living endothelium stimulated with TNF-α before blood flow): increases in a TNF-α dose-dependent manner; also recorded: platelet adhesion again occurs; also recorded: platelet adhesion and aggregation again resulted
- vascular ICAM-1 expression in lung-on-chip ([1]; TNF-α on alveolar compartment containing AE): increases in a dose-dependent manner
- platelet-endothelial dynamics in lung-on-chip ([1]; TNF-α stimulated versus untreated): follows a similar trend as ICAM-1
- clots (platelets and fibrin) in vascular compartment of lung-on-chip ([1]; TNF-α stimulated, end of assay): significant amount of clots are observed
